The nature of the data set: Modulation of p-gp (unknown origin) transfected in human MDA435/LCC6MDR cells assessed as reversal of paclitaxel resistance.

Turning to `COc1ccc(C2=C(c3cc(OC)c(OC)c(OC)c3)C(=O)N(CC(=O)c3ccc(OCc4ccccc4)c(OC)c3)C2=O)cc1OC`, the half-maximal effective concentration (EC50) came to 110 nM. To `COc1ccc(C2=C(c3ccc(OC)c(OC)c3)C(=O)N(CC(=O)c3ccc(OCc4ccccc4)c(OC)c3)C2=O)cc1OC` belongs 94 nM.

Values taken from BindingDB's records for doi:10.1021/jm400930e (Ocean University of China, 2013).
